According to article PMC9667777, “A fragment-based approach leading to the discovery of inhibitors of CK2α with a novel mechanism of action” (RSC Medicinal Chemistry, 2022):
Where “and” joins values, the source holds several entries; their conditions need not be identical. Identical values can stand only once. Like-named read-outs stand apart in the source and are kept apart here.

Experiments:
CK2α [1] = target: T1, CK2α (Homo sapiens, UniProt P68400); assay: biochemical; conditions: for inhibition at 50 µM: read-out: % inhibition at 50 μM; for inhibition at 500 µM: read-out: % inhibition at 500 μM; for inhibition at 1000 µM: read-out: % inhibition at 1 mM
CK2α [2] = target: T1, CK2α
[3] = test system: CK2α-dependent phosphorylation of AKT1 Ser129 and CDC37 Ser13; conditions: HCT116 cells
CK2α [4] = target: T1, CK2α; remark: listed apart in the source
HCT116 cells [5] = assay: cells; conditions: Homo sapiens, HCT-116, 72 h, read-out: GI50 HCT116, 72 hours; mean ± SEM from three experiments run in triplicate
Jurkat cells = assay: cells; conditions: Homo sapiens, 72 h, read-out: GI50 Jurkat
A549 cells = assay: cells; conditions: Homo sapiens, 72 h, read-out: GI50 A459
HCT116 cells [6] = conditions: read-out: GI50 HCT116; 72 hours; mean ± SEM from three experiments run in triplicate

T1 sequence (P68400 whole entry): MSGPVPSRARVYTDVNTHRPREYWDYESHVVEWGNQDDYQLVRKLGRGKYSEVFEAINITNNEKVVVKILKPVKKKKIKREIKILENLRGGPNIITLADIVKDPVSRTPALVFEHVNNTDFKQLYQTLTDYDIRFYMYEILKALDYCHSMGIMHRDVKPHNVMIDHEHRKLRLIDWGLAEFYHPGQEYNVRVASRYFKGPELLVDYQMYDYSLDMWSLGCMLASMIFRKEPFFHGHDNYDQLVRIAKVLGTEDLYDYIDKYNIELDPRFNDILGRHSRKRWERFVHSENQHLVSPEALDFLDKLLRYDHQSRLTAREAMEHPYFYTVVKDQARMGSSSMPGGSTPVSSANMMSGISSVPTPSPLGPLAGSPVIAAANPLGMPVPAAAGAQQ

Row | SMILES | inhibition at 50 µM (CK2α [1]) | Ligand efficiency (CK2α [2]) | further results
1 | CCCc1cn(Cc2c[nH]c3ccc(Br)cc23)nn1 [Compound 21] | 11 ± 6% | – | –
2 | N#CCc1c[nH]c2cc(Cl)c(Br)cc12 [Compound 9] | 103 ± 6% | – | –
3 | Brc1ccc2[nH]ccc2c1 [Compound 3] | – | – | inhibition at 500 µM (CK2α [1]): 22 ± 5%; inhibition at 1000 µM (CK2α [1]): 50 ± 13%
4 | CNCc1c[nH]c2ccc(Br)cc12 [Compound 22] | 21 ± 5% | – | –
5 | N=C(Cc1c[nH]c2ccc(Br)cc12)NO [Compound 23] | 13 ± 5% | – | –
6 | N#CCc1n[nH]c2cc(Br)c(Br)cc12 [Compound 16] | 95 ± 4% | 0.53 kcal/mol | –
7 | N#CCc1n[nH]c2ccc(Br)cc12 [Compound 10] | 97 ± 3% | – | –
8 | N#CCc1c[nH]c2ccc(C(F)(F)F)cc12 [Compound 14] | 39 ± 10% | – | –
9 | N#CCc1c[nH]c2ccc(Br)cc12 [Compound 8] | 32 ± 7% | 0.44 and 0.44 kcal mol-1 and 0.44 kJ mol^−1 | inhibition of CK2α-dependent phosphorylation of Ser129 in AKT1 ([3]; twice the GI50 (170 μM), 24, 48 or 72 hours): good inhibition; inhibition of phosphorylation of Ser13 in CDC37 ([3]; twice the GI50 (170 μM), 48 h): significantly inhibited; binding to CK2α by CPMG signal (CK2α [4]; 500 μM compound + 7 μM CK2α): binds to CK2α; binding to CK2α in the presence of CX4945 (CK2α [4]; 500 μM compound + 50 μM CX4945 + 7 μM CK2α): significantly reduced; binding to CK2α in the presence of αD-binder (CK2α [4]; 500 μM compound + 500 μM αD-binder + 7 μM CK2α): largely inhibited; GI50 (HCT116 cells [5]): 88 ± 7 µM; GI50 (Jurkat cells): 55 ± 2 µM; GI50 (A549 cells): 29 ± 7 µM; inhibition at 500 µM (CK2α [1]): 87 ± 11%; inhibition at 1000 µM (CK2α [1]): 105 ± 9%
10 | Brc1ccc2[nH]ncc2c1 [Compound 7] | – | 0.47 and 0.47 kJ mol^−1 | inhibition at 500 µM (CK2α [1]): 66 ± 5%; inhibition at 1000 µM (CK2α [1]): 84 ± 6%
11 | Brc1ccc2[nH]cc(Cc3nccs3)c2c1 [Compound 18] | 13 ± 4% | – | –
12 | N#CCc1n[nH]c2cc(Cl)c(Br)cc12 [Compound 17] | 98 ± 3% | 0.52 kcal/mol | –
13 | O=C(O)c1ccc2c(c1)nc(Nc1cccc(Cl)c1)c1ccncc12 [CX4945, reference compound] | – | – | GI50 (HCT116 cells [6]): 4 µM; GI50 (HCT116 cells [5]): 4.8 µM
14 | Brc1ccc2[nH]cc(Cc3ccc[nH]3)c2c1 [Compound 20] | 8 ± 3% | – | –
15 | Clc1cc2[nH]ccc2cc1Br [Compound 6] | – | 0.44 and 0.44 kJ mol^−1 | inhibition at 500 µM (CK2α [1]): 93 ± 5%
16 | N#CCc1c[nH]c2cc(Br)c(Br)cc12 [Compound 15] | 65 ± 10% | – | –
